US20250134851A1 (priority 2021, published 2025)

How the values were obtained:
[1] = system: skin wrinkles under the eyes; parameters: species or system human; conditions: in vivo
PC12 cells = type: cell-based
[2] = system: hyperhidrosis (hand sweating); parameters: species or system human; conditions: in vivo
[3] = system: sweating area of hind paw of ICR mice; conditions: mouse, in vivo, 0.8 mg/kg
[4] = type: physicochemical; conditions: pH 7

| Structure (SMILES) | Reduction of skin wrinkle dermal density (%) [1] [%] | inhibition of acetylcholine release (PC12 cells) | Sweat weight [2] [%] | sweating area relative to control [3] | Residual amount [4] |
| --- | --- | --- | --- | --- | --- |
| CC(=O)Oc1c(-c2cc(O)c(O)c(O)c2)oc2cc(O)cc(O)c2c1=O [3-Acetyl-Myricetin, 3-acetyl-myricetin] | 78 | inhibit acetylcholine release | 28 | improved effect to a degree that the previously reported myricetin derivatives cannot provide | ≈100% |
| COc1cc(O)c2c(=O)c(OC)c(-c3cc(OC)c(OC)c(OC)c3)oc2c1 [Combretol, combretol] | 36 |  | 56 |  | <<10% |
| COc1cc(-c2oc3cc(O)cc(O)c3c(=O)c2O)cc(O)c1O [Laricitrin, laricitrin] | 38 |  | 52 |  | <<10% |
| O=c1c(O)c(-c2cc(O)c(O)c(O)c2)oc2cc(O)cc(O)c12 [Myricetin, myricetin] | 48 |  | 55 |  | <<10% |
| COc1cc(-c2oc3cc(O)cc(O)c3c(=O)c2O)cc(OC)c1O [Syringetin, syringetin] | 37 |  | 53 |  | <<10% |
